Results: ChEMBL document CHEMBL3991601, “The target landscape of clinical kinase drugs” (Science, 2017)
Activity calls are given as the source filed them. Rule as the data show it, for most assays here: actives have a measured Kd and inactives only a lower limit.

Key:
[1] = molecular target: T1, Rab-like protein 3 (Homo sapiens, UniProt Q5HYI8)
T1 sequence (Q5HYI8 whole entry): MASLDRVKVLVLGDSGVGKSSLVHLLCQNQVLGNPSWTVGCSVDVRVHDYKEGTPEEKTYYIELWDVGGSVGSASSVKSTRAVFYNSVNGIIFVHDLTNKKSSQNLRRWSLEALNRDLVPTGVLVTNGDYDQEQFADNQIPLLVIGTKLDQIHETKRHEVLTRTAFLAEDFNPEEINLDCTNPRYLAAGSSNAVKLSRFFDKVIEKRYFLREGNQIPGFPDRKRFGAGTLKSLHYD

[2] = molecular target: T2, Ephrin type-B receptor 4 (Homo sapiens, UniProt P54760)
T2 sequence (P54760 whole entry): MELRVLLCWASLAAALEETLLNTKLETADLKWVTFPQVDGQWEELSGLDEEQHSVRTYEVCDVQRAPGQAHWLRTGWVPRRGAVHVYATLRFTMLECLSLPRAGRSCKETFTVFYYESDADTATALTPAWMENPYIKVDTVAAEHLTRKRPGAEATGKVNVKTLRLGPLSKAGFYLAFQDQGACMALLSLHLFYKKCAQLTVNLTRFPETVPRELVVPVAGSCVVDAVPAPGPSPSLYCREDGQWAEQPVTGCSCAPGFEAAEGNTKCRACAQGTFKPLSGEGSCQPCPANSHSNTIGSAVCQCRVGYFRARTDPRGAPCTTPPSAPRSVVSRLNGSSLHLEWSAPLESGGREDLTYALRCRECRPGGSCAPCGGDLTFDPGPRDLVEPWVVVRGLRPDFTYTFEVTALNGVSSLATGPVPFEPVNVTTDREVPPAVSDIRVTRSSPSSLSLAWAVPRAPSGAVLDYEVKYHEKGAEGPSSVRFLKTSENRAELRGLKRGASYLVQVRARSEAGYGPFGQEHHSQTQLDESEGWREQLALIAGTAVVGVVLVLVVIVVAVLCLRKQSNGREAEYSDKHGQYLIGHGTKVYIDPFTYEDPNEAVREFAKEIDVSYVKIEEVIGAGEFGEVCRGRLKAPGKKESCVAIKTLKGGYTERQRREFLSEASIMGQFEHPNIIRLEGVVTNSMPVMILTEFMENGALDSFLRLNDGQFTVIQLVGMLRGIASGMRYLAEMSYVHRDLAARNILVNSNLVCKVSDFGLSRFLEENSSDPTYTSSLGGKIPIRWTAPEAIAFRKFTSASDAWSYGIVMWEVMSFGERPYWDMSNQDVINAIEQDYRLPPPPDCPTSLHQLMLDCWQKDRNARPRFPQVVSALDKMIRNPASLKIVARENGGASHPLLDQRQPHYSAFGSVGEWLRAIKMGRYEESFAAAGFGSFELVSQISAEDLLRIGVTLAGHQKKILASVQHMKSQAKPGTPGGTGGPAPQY

[3] = molecular target: Wee1-like protein kinase (Homo sapiens, UniProt P30291)
Sequence of Wee1-like protein kinase (P30291 whole entry): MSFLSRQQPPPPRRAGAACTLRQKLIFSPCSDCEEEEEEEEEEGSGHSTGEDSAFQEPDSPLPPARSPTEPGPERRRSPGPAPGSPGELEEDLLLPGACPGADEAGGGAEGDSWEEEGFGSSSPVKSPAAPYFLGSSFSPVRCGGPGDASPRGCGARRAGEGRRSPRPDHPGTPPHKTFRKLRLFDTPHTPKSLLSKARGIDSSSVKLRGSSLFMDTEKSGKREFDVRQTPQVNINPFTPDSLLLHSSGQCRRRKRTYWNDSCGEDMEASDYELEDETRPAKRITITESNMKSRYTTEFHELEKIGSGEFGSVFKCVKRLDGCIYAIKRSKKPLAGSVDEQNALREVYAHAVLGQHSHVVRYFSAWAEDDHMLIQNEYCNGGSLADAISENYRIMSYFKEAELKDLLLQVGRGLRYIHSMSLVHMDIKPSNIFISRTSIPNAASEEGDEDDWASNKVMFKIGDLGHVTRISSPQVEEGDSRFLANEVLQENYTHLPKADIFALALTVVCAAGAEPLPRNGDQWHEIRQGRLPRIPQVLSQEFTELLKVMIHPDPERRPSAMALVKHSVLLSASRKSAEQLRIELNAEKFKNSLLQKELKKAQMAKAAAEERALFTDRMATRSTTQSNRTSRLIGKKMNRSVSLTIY

[4] = molecular target: Dual specificity mitogen-activated protein kinase kinase 2 (Homo sapiens, UniProt P36507)
Sequence of Dual specificity mitogen-activated protein kinase kinase 2 (P36507 whole entry): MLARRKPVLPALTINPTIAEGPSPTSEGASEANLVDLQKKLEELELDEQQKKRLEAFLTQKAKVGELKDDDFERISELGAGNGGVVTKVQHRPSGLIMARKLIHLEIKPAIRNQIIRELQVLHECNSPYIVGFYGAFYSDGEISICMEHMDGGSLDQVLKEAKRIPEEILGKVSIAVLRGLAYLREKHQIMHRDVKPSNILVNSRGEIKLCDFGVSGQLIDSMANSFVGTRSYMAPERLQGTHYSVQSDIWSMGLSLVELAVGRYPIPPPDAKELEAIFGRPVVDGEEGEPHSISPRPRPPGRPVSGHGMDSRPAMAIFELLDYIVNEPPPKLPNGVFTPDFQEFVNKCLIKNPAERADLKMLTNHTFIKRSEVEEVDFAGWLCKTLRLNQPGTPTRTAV

[5] = molecular target: Bone morphogenetic protein receptor type-1B (Homo sapiens, UniProt O00238)
Sequence of Bone morphogenetic protein receptor type-1B (O00238 whole entry): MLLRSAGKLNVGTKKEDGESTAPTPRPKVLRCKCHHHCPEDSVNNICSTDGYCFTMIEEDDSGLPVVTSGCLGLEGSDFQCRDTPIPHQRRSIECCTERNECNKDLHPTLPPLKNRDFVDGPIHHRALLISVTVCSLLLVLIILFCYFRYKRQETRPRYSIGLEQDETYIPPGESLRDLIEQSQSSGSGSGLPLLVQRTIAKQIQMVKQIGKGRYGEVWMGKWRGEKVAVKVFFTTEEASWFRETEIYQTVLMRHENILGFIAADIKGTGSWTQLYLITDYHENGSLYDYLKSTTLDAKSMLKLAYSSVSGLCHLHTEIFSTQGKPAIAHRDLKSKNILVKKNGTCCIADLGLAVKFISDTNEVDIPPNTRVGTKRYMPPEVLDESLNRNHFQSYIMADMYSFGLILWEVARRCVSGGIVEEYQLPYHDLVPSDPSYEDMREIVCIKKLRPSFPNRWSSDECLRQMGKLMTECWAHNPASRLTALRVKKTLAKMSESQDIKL

[6] = molecular target: Mitogen-activated protein kinase 3 (Homo sapiens, UniProt P27361)
Sequence of Mitogen-activated protein kinase 3 (P27361 whole entry): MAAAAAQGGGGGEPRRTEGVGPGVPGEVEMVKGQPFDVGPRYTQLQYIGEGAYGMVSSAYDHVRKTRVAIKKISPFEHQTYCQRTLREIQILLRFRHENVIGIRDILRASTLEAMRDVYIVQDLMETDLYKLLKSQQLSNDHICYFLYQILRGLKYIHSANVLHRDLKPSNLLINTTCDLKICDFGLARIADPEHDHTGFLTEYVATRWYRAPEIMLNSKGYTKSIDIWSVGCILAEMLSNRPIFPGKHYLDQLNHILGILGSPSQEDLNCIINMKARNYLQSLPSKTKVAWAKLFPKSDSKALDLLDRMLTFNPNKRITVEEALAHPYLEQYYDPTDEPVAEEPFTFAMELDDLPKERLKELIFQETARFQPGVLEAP

[7] = molecular target: Citron Rho-interacting kinase (Homo sapiens, UniProt O14578)
Sequence of Citron Rho-interacting kinase (O14578 whole entry): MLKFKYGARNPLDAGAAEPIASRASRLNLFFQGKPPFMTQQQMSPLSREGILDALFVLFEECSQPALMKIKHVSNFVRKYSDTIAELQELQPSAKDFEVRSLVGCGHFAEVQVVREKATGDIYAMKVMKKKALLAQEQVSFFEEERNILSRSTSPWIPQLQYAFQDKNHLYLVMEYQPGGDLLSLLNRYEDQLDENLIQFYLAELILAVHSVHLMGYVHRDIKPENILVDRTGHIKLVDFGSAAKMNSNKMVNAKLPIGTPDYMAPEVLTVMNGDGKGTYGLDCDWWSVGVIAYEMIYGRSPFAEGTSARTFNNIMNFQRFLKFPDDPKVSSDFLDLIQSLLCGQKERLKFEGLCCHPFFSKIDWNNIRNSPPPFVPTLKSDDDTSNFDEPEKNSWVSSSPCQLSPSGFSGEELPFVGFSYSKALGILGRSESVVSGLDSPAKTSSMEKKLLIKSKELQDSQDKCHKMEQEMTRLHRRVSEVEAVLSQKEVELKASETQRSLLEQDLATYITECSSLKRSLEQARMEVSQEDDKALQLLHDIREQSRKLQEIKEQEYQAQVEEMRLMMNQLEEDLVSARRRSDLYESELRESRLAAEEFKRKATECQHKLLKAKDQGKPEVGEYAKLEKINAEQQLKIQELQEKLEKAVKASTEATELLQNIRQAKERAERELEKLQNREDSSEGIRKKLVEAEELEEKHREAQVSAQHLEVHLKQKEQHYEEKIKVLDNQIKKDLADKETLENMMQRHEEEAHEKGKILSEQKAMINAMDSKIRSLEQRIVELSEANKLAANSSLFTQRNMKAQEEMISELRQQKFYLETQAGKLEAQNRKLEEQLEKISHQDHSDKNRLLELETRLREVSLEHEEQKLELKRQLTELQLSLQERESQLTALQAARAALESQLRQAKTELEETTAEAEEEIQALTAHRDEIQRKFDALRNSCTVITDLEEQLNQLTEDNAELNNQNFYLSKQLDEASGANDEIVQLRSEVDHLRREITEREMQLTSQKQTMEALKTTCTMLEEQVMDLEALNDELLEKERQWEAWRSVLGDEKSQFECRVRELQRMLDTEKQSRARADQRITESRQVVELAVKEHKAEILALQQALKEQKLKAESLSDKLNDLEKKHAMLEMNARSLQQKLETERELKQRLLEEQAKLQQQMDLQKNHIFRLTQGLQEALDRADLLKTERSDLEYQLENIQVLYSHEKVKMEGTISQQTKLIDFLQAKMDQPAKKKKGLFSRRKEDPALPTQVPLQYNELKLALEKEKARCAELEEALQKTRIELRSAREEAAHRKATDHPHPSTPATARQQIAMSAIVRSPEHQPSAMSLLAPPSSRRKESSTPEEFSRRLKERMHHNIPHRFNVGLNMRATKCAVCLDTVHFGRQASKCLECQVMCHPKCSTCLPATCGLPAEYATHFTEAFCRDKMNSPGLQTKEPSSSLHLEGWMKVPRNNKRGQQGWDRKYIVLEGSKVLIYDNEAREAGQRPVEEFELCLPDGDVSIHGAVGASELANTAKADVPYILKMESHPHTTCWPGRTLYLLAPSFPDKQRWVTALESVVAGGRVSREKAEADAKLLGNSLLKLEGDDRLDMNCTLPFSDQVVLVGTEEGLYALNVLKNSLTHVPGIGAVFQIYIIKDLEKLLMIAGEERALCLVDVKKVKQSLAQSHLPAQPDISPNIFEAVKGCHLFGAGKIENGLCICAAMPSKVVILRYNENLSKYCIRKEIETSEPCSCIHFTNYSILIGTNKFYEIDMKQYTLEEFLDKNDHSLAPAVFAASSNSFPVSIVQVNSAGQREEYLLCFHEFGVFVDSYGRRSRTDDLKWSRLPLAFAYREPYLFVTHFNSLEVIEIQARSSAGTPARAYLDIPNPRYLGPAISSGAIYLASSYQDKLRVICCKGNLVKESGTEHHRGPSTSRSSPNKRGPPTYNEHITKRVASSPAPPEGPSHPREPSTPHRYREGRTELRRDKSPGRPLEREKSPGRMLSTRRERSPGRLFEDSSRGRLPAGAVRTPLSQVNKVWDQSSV

[8] = molecular target: Mitogen-activated protein kinase 9 (Homo sapiens, UniProt P45984)
Sequence of Mitogen-activated protein kinase 9 (P45984 whole entry): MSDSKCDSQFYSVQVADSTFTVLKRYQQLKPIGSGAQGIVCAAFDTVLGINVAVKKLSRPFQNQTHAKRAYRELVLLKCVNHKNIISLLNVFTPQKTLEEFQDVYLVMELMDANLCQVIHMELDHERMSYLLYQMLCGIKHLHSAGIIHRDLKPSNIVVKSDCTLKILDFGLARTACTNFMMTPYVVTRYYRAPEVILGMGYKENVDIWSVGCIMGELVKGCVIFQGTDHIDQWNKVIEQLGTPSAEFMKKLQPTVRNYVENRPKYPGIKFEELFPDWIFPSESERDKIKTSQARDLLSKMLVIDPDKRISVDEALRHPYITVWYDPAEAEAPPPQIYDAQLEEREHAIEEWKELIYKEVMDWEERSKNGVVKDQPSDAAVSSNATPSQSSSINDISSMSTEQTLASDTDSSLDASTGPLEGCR

[9] = molecular target: Tyrosine-protein kinase Yes (Homo sapiens, UniProt P07947)
Sequence of Tyrosine-protein kinase Yes (P07947 whole entry): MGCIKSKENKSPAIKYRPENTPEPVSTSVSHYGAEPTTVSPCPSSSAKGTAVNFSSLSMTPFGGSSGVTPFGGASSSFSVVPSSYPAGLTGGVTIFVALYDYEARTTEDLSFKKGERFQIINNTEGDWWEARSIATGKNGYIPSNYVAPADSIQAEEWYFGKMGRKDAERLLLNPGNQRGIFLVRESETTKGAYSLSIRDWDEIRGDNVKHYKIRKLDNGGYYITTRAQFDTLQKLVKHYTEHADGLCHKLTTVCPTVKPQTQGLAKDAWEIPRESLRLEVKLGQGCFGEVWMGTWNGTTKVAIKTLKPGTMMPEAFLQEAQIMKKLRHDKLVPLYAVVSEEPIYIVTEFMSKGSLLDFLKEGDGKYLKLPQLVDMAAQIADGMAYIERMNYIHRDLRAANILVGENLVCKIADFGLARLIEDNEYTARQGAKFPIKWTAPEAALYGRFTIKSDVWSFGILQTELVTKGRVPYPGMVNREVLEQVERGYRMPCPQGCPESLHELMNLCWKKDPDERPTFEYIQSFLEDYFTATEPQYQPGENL

[10] = molecular target: T3, TGF-beta receptor type-1 (Homo sapiens, UniProt P36897)
T3 sequence (P36897 whole entry): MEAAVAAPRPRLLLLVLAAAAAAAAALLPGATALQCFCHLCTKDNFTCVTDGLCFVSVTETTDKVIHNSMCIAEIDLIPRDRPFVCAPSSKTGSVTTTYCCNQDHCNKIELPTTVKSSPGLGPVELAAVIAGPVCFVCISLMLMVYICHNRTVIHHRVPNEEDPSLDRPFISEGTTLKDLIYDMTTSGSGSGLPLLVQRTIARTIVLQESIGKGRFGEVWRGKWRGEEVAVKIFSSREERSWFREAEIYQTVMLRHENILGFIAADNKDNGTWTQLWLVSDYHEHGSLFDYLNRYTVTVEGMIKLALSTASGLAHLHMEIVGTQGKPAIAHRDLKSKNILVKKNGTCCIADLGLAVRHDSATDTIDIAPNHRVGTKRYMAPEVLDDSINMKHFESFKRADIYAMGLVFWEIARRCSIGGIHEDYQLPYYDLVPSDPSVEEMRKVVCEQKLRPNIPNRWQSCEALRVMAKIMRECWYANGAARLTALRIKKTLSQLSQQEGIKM

[11] = molecular target: Ephrin type-A receptor 7 (Homo sapiens, UniProt Q15375)
[12] = molecular target: T4, STE20-related kinase adapter protein alpha (Homo sapiens, UniProt Q7RTN6)
T4 sequence (Q7RTN6 whole entry): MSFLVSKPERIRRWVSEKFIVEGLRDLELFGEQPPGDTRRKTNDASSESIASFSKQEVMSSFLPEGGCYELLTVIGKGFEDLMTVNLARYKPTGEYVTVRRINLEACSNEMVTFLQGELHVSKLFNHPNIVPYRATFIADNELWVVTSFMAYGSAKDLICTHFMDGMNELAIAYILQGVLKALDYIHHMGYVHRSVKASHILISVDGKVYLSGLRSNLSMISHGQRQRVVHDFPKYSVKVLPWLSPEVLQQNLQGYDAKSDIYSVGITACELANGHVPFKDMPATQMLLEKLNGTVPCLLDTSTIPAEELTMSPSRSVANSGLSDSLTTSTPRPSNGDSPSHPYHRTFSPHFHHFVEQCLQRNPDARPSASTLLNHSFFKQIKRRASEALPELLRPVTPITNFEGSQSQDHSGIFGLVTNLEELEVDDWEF

Measured: Kd
Also: in the data inactive means no Kd found up to 30 µM.

CCc1cc2c(cc1N1CCC(N3CCOCC3)CC1)C(C)(C)c1[nH]c3cc(C#N)ccc3c1C2=O [ALECTINIB]
inactive: [1] > 30 µM | [2] > 30 µM | [3] > 30 µM | [4] > 30 µM | [5] > 30 µM | [6] > 30 µM | [7] > 30 µM | [8] > 30 µM | [9] > 30 µM | [10] > 30 µM | [11] > 30 µM | [12] > 30 µM

FC(F)(F)c1ccc(CNc2ccc(Cc3c[nH]c4ncc(Cl)cc34)cn2)cn1 [PEXIDARTINIB]
inactive: [1] > 30 µM | [2] > 30 µM | [3] > 30 µM | [4] > 30 µM | [5] > 30 µM | [6] > 30 µM | [7] > 30 µM | [8] > 30 µM | [9] > 30 µM | [10] > 30 µM | [11] > 30 µM | [12] > 30 µM
